Test results from PubChem BioAssay AID2060343 (Molecular Pharmacology Branch, DTP, NCI, 2025).

System: 138582-337-R-J1-PDC spheroids with HUVEC/MSC, viability
Assay: Anticancer human tumor 138582-337-R-J1-PDC patient-derived Merkel cell tumor cell line growth inhibition [IpAb]
Details: for IC50: curve of first compound; for viability, T/C: stronger effect = lower value
Summary of the method: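 Combinations with ipatasertib or abemaciclib were tested on tumour spheroids holding HUVEC (25%) and MSC (15%) alongside 60% malignant cells. Top concentration was at or near clinical Cmax (10 microM if undefined), descending in half-log steps.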
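Further: spheroids exposed to compounds for seven days.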
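Wherever viability, T/C is given: 100% = DMSO vehicle control viability.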

Q: How did the IC50 (second compound 0.1 µM) turn out when C=CC(=O)N1CCN(c2nc(=O)n(-c3c(C)ccnc3C(C)C)c3nc(-c4c(O)cccc4F)c(F)cc23)C(C)C1 (stereo not given) + CC(C)NCC(C(=O)N1CCN(c2ncnc3c2C(C)CC3O)CC1)c1ccc(Cl)cc1 was run?
A: > 10000 nM

Q: What about the IC50 (second compound 0.316 µM) of the same compound?
A: > 10000 nM

Q: What about the IC50 (second compound 1 µM) of the same compound?
A: > 10000 nM

Q: And the IC50 (second compound 3.16 µM)?
A: > 10000 nM

Q: What about the IC50 (second compound 10 µM) of the same compound?
A: 31.6 nM

Q: What about the viability, T/C (second compound 0.1 µM, first compound 0.0316 µM) of the same compound?
A: 90.2%

Q: And the viability, T/C (second compound 0.1 µM, first compound 0.1 µM)?
A: 95.5%

Q: What about the viability, T/C (second compound 0.1 µM, first compound 0.316 µM) of the same compound?
A: 91.4%

Q: What about the viability, T/C (second compound 0.1 µM, first compound 1 µM) of the same compound?
A: 101%

Q: What about the viability, T/C (second compound 0.1 µM, first compound 3.16 µM) of the same compound?
A: 115%

Q: What about the viability, T/C (second compound 0.1 µM, first compound 10 µM) of the same compound?
A: 168%

Q: And the viability, T/C (second compound 0.316 µM, first compound 0.0316 µM)?
A: 90.6%

Q: And the viability, T/C (second compound 0.316 µM, first compound 0.1 µM)?
A: 86.2%

Q: What about the viability, T/C (second compound 0.316 µM, first compound 0.316 µM) of the same compound?
A: 83.5%

Q: And the viability, T/C (second compound 0.316 µM, first compound 1 µM)?
A: 90.1%

Q: And the viability, T/C (second compound 0.316 µM, first compound 3.16 µM)?
A: 105%

Q: What about the viability, T/C (second compound 0.316 µM, first compound 10 µM) of the same compound?
A: 132%

Q: What about the viability, T/C (second compound 1 µM, first compound 0.0316 µM) of the same compound?
A: 71.9%

Q: And the viability, T/C (second compound 1 µM, first compound 0.1 µM)?
A: 66.6%

Q: What about the viability, T/C (second compound 1 µM, first compound 0.316 µM) of the same compound?
A: 71.4%

Q: And the viability, T/C (second compound 1 µM, first compound 1 µM)?
A: 74.9%

Q: And the viability, T/C (second compound 1 µM, first compound 3.16 µM)?
A: 86.6%

Q: And the viability, T/C (second compound 1 µM, first compound 10 µM)?
A: 77.5%

Q: And the viability, T/C (second compound 3.16 µM, first compound 0.0316 µM)?
A: 57.1%

Q: And the viability, T/C (second compound 3.16 µM, first compound 0.1 µM)?
A: 56.8%

Q: And the viability, T/C (second compound 3.16 µM, first compound 0.316 µM)?
A: 59.4%

Q: And the viability, T/C (second compound 3.16 µM, first compound 1 µM)?
A: 63.4%

Q: And the viability, T/C (second compound 3.16 µM, first compound 3.16 µM)?
A: 69%

Q: And the viability, T/C (second compound 3.16 µM, first compound 10 µM)?
A: 54%

Q: And the viability, T/C (second compound 10 µM, first compound 0.0316 µM)?
A: 38.7%

Q: And the viability, T/C (second compound 10 µM, first compound 0.1 µM)?
A: 49.9%

Q: What about the viability, T/C (second compound 10 µM, first compound 0.316 µM) of the same compound?
A: 47.9%

Q: And the viability, T/C (second compound 10 µM, first compound 1 µM)?
A: 47.6%

Q: And the viability, T/C (second compound 10 µM, first compound 3.16 µM)?
A: 52.4%

Q: And the viability, T/C (second compound 10 µM, first compound 10 µM)?
A: 32.3%

Q: Which IC50 (second compound 0.1 µM) does the source give for CC(C)(C)c1cnc(CSc2cnc(NC(=O)C3CCNCC3)s2)o1 + CC(C)NCC(C(=O)N1CCN(c2ncnc3c2C(C)CC3O)CC1)c1ccc(Cl)cc1 here?
A: 94.5 nM

Q: And the IC50 (second compound 0.316 µM)?
A: 76.7 nM

Q: What about the IC50 (second compound 1 µM) of the same compound?
A: 52.9 nM

Q: And the IC50 (second compound 3.16 µM)?
A: 37.1 nM

Q: And the IC50 (second compound 10 µM)?
A: < 9.49 nM

Q: What about the viability, T/C (second compound 0.1 µM, first compound 0.00949 µM) of the same compound?
A: 104%

Q: And the viability, T/C (second compound 0.1 µM, first compound 0.03 µM)?
A: 97.3%

Q: What about the viability, T/C (second compound 0.1 µM, first compound 0.0949 µM) of the same compound?
A: 50.3%

Q: What about the viability, T/C (second compound 0.1 µM, first compound 0.3 µM) of the same compound?
A: 0.31%

Q: And the viability, T/C (second compound 0.1 µM, first compound 0.949 µM)?
A: 0.3%

Q: What about the viability, T/C (second compound 0.1 µM, first compound 3 µM) of the same compound?
A: 0.37%

Q: And the viability, T/C (second compound 0.316 µM, first compound 0.00949 µM)?
A: 79%

Q: What about the viability, T/C (second compound 0.316 µM, first compound 0.03 µM) of the same compound?
A: 74.3%

Q: And the viability, T/C (second compound 0.316 µM, first compound 0.0949 µM)?
A: 44.2%

Q: What about the viability, T/C (second compound 0.316 µM, first compound 0.3 µM) of the same compound?
A: 0.31%

Q: What about the viability, T/C (second compound 0.316 µM, first compound 0.949 µM) of the same compound?
A: 0.36%

Q: And the viability, T/C (second compound 0.316 µM, first compound 3 µM)?
A: 0.44%

Q: And the viability, T/C (second compound 1 µM, first compound 0.00949 µM)?
A: 72.7%

Q: What about the viability, T/C (second compound 1 µM, first compound 0.03 µM) of the same compound?
A: 72.2%

Q: And the viability, T/C (second compound 1 µM, first compound 0.0949 µM)?
A: 27%

Q: And the viability, T/C (second compound 1 µM, first compound 0.3 µM)?
A: 0.41%

Q: What about the viability, T/C (second compound 1 µM, first compound 0.949 µM) of the same compound?
A: 0.35%

Q: What about the viability, T/C (second compound 1 µM, first compound 3 µM) of the same compound?
A: 0.37%

Q: And the viability, T/C (second compound 3.16 µM, first compound 0.00949 µM)?
A: 55.2%

Q: What about the viability, T/C (second compound 3.16 µM, first compound 0.03 µM) of the same compound?
A: 58.7%

Q: What about the viability, T/C (second compound 3.16 µM, first compound 0.0949 µM) of the same compound?
A: 19.5%

Q: And the viability, T/C (second compound 3.16 µM, first compound 0.3 µM)?
A: 0.33%

Q: And the viability, T/C (second compound 3.16 µM, first compound 0.949 µM)?
A: 0.23%

Q: What about the viability, T/C (second compound 3.16 µM, first compound 3 µM) of the same compound?
A: 0.81%

Q: And the viability, T/C (second compound 10 µM, first compound 0.00949 µM)?
A: 43.8%

Q: And the viability, T/C (second compound 10 µM, first compound 0.03 µM)?
A: 43.9%

Q: And the viability, T/C (second compound 10 µM, first compound 0.0949 µM)?
A: 5.74%

Q: What about the viability, T/C (second compound 10 µM, first compound 0.3 µM) of the same compound?
A: 0.5%

Q: And the viability, T/C (second compound 10 µM, first compound 0.949 µM)?
A: 0.35%

Q: What about the viability, T/C (second compound 10 µM, first compound 3 µM) of the same compound?
A: 0.49%
